According to US11492347B2 (ENYO PHARMA, priority 2018, dated 2022):

Legend:
[1] = system: UXF 1138; test: Cytotoxicity, propidium iodide based monolayer assay; assay type: cell-based; conditions: 96 h; UXF 1138 uterine sarcoma, four days of treatment, T/C=50%; read-out: Absolute IC50
Method: The cytotoxicity was tested for compounds of the invention on five different cell-lines, namely LXFL 1121, MAXF 401, MMXF L-636, PRXF PC-3M and UXF 1138 which are respectively lung large cell carcinoma, breast adeno carcinoma, multiple myeloma, prostate adeno carcinoma and uterine sarcoma.
A working stock solution of the test compounds was prepared in DMSO at a concentration of 33 mM or 8.25 mM, and small aliquots were stored at −20° C. On each day of an experiment, a frozen aliquot of the working stock solution was thawed and stored at room temperature prior to and during treatment.
All liquid handling steps were performed using the Tecan Freedom EVO 200 platform. First, serial 2-fold dilutions of the 33 mM DMSO working stock solution were done in DMSO. The DMSO dilutions were then diluted 1:22 into cell culture medium in an intermediate dilution plate. Finally, 10 μl taken from the intermediate dilution plate were transferred to 140 μl/well of the final assay plate. Thus, the DMSO serial dilutions were diluted 1:330 with cell culture medium, and the DMSO concentration in the assay was 0.3% v/v.
Cell lines were routinely passaged once or twice weekly and maintained in culture for up to 20 passages. Most cell lines were grown at 37° C. in a humidified atmosphere with 5% CO2 in RPMI 1640 medium (25 mM HEPES, with L-glutamine, #FG1385, Biochrom, Berlin, Germany) supplemented with 10% (v/v) fetal calf serum (Sigma, Taufkirchen, Germany) and 0.05 mg/mL gentamicin (Life Technologies, Karlsruhe, Germany).
A modified propidium iodide (PI) based monolayer assay was used to assess the anti-cancer activity of the compounds. Briefly, cells were harvested from exponential phase cultures, counted and plated in 96 well flat-bottom microtiter plates at a cell density of 4,000 to 40,000 cells/well dependent on the cell line's growth rate. The individual seeding density for each cell line ensure exponential growth conditions over the whole or at least the bigger part of the treatment period. After a 24 h recovery period, to allow the cells to resume exponential growth, 10 μl of culture medium (6 control wells/cell line/plate) or of culture medium with test compounds were added. Compounds were applied at ten concentrations in 2-fold increments in duplicates up to 25 μM or 100 μM and treatment continued for four days. After four days of treatment, cells were next washed with 200 μl PBS to remove dead cells and debris, then 200 μl of a solution containing 7 μg/ml propidium iodide (PI) and 0.1% (v/v) Triton X-100 was added. After an incubation period of 1-2 hours at room temperature, fluorescence (FU) was measured using the Enspire Multimode Plate Reader (excitation λ=530 nm, emission k=620 nm) to quantify the amount of attached viable cells.
Drug effects were expressed in terms of the percentage of the fluorescence signal, obtained by comparison of the mean signal in the treated wells with the mean signal of the untreated controls (expressed by the test-versus-control value, T/C−value [%]):
[formula] IC values reported reflect the concentration of the test compound that achieves T/C=50%. Calculation was done by 4 parameter non-linear curve fit.

[2] = target: T1, CISD3 Gene Product (Miner2) (Homo sapiens, UniProt P0C7P0); test: Stability of Fe-S cluster binding of purified NEET protein (absorbance 458 nm); assay type: biochemical; conditions: for Residual cluster bound at end of experiment (Percentage Absorbance 458 nm at time zero): CISD3 gene product 20 μM, pH 6, at 180 minutes, vehicle control 11%; for Residual cluster bound at end of experiment (Percentage Absorbance 458 nm at time zero) / Time (in minutes) to achieve 50% loss of bound cluster (Absorbance 458 nm): compound 60 μM; for Time (in minutes) to achieve 50% loss of bound cluster (Absorbance 458 nm): Miner2 20 μM, pH 6, 37° C., run time 180 minutes, vehicle control 60; for Stabiliser or destabiliser of Fe-S cluster binding by CISD3 Gene Product (Miner2): time to 50% cluster loss changed by more than 25% compared to the Control sample, at the concentrations tested
T1 sequence (P0C7P0 15-127): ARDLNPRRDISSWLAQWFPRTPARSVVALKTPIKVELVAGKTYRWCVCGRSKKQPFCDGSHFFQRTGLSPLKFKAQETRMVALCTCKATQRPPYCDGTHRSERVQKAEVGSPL
Outline: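 Purified NEET protein (20 μM) with compound (60 μM, 1:3 molar ratio) in 100 mM Bis-Tris pH 6, 100 mM NaCl, 66 μM DMSO at 37 °C; 458 nm absorbance decay read every 5 min for 500 min (NAF-1) or 180 min (mitoNEET, Miner2). Outputs: time to 50% absorbance loss and residual % bound cluster, versus protein alone.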

| SMILES | IC50 [1] [nM] | Residual cluster bound at end of experiment (Percentage Absorbance 458 nm at time zero) [2] | Time (in minutes) to achieve 50% loss of bound cluster (Absorbance 458 nm) [2] | Stabiliser or destabiliser of Fe-S cluster binding by CISD3 Gene Product (Miner2) [2] |
| --- | --- | --- | --- | --- |
| COC1CN(c2ccc(C(=O)Nc3sc4c(c3C(=O)O)CC(C)(C)CC4(C)C)cc2)C1 [Compound #58, 2-[[4-(3-Methoxyazetidin-1-yl)benzoyl]amino]-5,5,7,7-tetramethyl-4,6-dihydrobenzothiophene-3-carboxylic acid] | 819 | 44% (11%) | 125 (60) minutes | Stabilisers |
| CC1(C)CCc2sc(NC(=O)c3ccccc3)c(C(=O)O)c21 [Compound #37, 2-Benzamido-4,4-dimethyl-5,6-dihydrocyclopenta[b]thiophene-3-carboxylic acid] | 9420 | 37% (11%) | 75 (60) minutes | Stabilisers |
| CC1(C)Cc2c(sc(NC(=O)c3ccc(N4CCOCC4)cc3)c2C(=O)O)C(C)(C)C1 [Compound #36, 5,5,7,7-Tetramethyl-2-[(4-morpholinobenzoyl)amino]-4,6-dihydrobenzothiophene-3-carboxylic acid] | 988 | 39% (11%) | 80 (60) minutes | Stabilisers |
